Test system: MV-4-11 cells
Test: Gene expression microarray analysis (Affymetrix PrimeView) and GSEA
Format: cell-based, human
Set-up: RFU PODN (11730768_x_at) / Fold change /veh PODN (11730768_x_at) / RFU LINC00158 (11744669_a_at) / Fold change /veh LINC00158 (11744669_a_at) / RFU DUSP10 (11751237_a_at) / Fold change /veh DUSP10 (11751237_a_at) / RFU ID3 (11757404_x_at) / Fold change /veh ID3 (11757404_x_at) / RFU PLEKHG5 (11737974_s_at) / Fold change /veh PLEKHG5 (11737974_s_at) / RFU LRRC4B (11730491_at) / Fold change /veh LRRC4B (11730491_at) / RFU GIMAP4 (11747438_a_at) / Fold change /veh GIMAP4 (11747438_a_at) / RFU KRT8 (11758183_x_at) / Fold change /veh KRT8 (11758183_x_at) / RFU CNN1 (11734310_a_at) / Fold change /veh CNN1 (11734310_a_at) / RFU VPS37D (11726825_at) / Fold change /veh VPS37D (11726825_at) / RFU C10orf10 (11716522_x_at) / Fold change /veh C10orf10 (11716522_x_at) / RFU KIR2DL2 /// KIR2DL4 /// KIR2DL5A /// KIR2DL5B /// KIR2DS1 /// KIR2DS2 /// KIR2DS3 /// KIR2DS4 /// KIR3DL3 /// KIR3DL3 /// KIR3DS1 (11738374_at) / Fold change /veh KIR2DL2 /// KIR2DL4 /// KIR2DL5A /// KIR2DL5B /// KIR2DS1 /// KIR2DS2 /// KIR2DS3 /// KIR2DS4 /// KIR3DL3 /// KIR3DL3 /// KIR3DS1 (11738374_at) / RFU C1QL1 (11718748_at) / Fold change /veh C1QL1 (11718748_at) / RFU TMPRSS4 (11747572_a_at) / Fold change /veh TMPRSS4 (11747572_a_at) / RFU HAMP (11756126_x_at) / Fold change /veh HAMP (11756126_x_at) / RFU RNFT2 (11725882_a_at) / Fold change /veh RNFT2 (11725882_a_at) / RFU NR4A2 (11747474_a_at) / Fold change /veh NR4A2 (11747474_a_at) / RFU ABCC12 (11746883_a_at) / Fold change /veh ABCC12 (11746883_a_at) / RFU TMEM136 (11760407_x_at) / Fold change /veh TMEM136 (11760407_x_at) / RFU CLDN22 /// WWC2 (11732394_at) / Fold change /veh CLDN22 /// WWC2 (11732394_at) / RFU HLA-DPB1 (11760878_x_at) / Fold change /veh HLA-DPB1 (11760878_x_at) / RFU SPINT1 (11716480_a_at) / Fold change /veh SPINT1 (11716480_a_at) / RFU GAP43 (11754022_s_at) / Fold change /veh GAP43 (11754022_s_at) / RFU A4GNT (11735810_at) / Fold change /veh A4GNT (11735810_at) / RFU PRB3 (11715151_x_at) / Fold change /veh PRB3 (11715151_x_at) / RFU TUBB4B (11761932_at) / Fold change /veh TUBB4B (11761932_at) / RFU CAPN14 (11732068_a_at) / Fold change /veh CAPN14 (11732068_a_at) / RFU TMCC2 (11721928_a_at) / Fold change /veh TMCC2 (11721928_a_at) / RFU IRGQ (11745062_a_at) / Fold change /veh IRGQ (11745062_a_at) / RFU FAM174B (11720279_a_at) / Fold change /veh FAM174B (11720279_a_at) / RFU TMPRSS4 (11748680_a_at) / Fold change /veh TMPRSS4 (11748680_a_at) / RFU FAM212B (11763350_a_at) / Fold change /veh FAM212B (11763350_a_at) / RFU PLEKHG5 (11743358_a_at) / Fold change /veh PLEKHG5 (11743358_a_at) / RFU ZSCAN30 (11745921_a_at) / Fold change /veh ZSCAN30 (11745921_a_at) / RFU CMKLR1 (11741424_a_at) / Fold change /veh CMKLR1 (11741424_a_at) / RFU LOC101060620 /// MAPK8IP1 (11723275_at) / Fold change /veh LOC101060620 /// MAPK8IP1 (11723275_at) / RFU SPTSSB (11747773_x_at) / Fold change /veh SPTSSB (11747773_x_at) / RFU PRSS12 (11739890_at) / Fold change /veh PRSS12 (11739890_at) / RFU BIN1 (11741810_x_at) / Fold change /veh BIN1 (11741810_x_at) / RFU WNT11 (11732464_a_at) / Fold change /veh WNT11 (11732464_a_at) / RFU C10orf10 (11716521_a_at) / Fold change /veh C10orf10 (11716521_a_at) / RFU C5orf56 (11738089_at) / Fold change /veh C5orf56 (11738089_at) / RFU CYB561 (11721691_x_at) / Fold change /veh CYB561 (11721691_x_at) / RFU ANKRD19P (11752326_a_at) / Fold change /veh ANKRD19P (11752326_a_at) / RFU OR2T12 /// OR2T33 /// OR2T8 (11738714_s_at) / Fold change /veh OR2T12 /// OR2T33 /// OR2T8 (11738714_s_at) / RFU VCAN (11748164_a_at) / Fold change /veh VCAN (11748164_a_at) / RFU JSRP1 (11732532_at) / Fold change /veh JSRP1 (11732532_at) / RFU KRTAP10-11 (11738290_x_at) / Fold change /veh KRTAP10-11 (11738290_x_at) / RFU MYO3A (11730013_a_at) / Fold change /veh MYO3A (11730013_a_at) / RFU EBF3 (11725865_a_at) / Fold change /veh EBF3 (11725865_a_at) / RFU CAMK2N1 (11719241_x_at) / Fold change /veh CAMK2N1 (11719241_x_at) / RFU C5orf56 (11738088_a_at) / Fold change /veh C5orf56 (11738088_a_at) / RFU OLFML3 (11715873_a_at) / Fold change /veh OLFML3 (11715873_a_at) / RFU LOC100653217 /// NTM (11731650_a_at) / Fold change /veh LOC100653217 /// NTM (11731650_a_at) / RFU MAPK11 (11762145_a_at) / Fold change /veh MAPK11 (11762145_a_at) / RFU FIZ1 (11724087_x_at) / Fold change /veh FIZ1 (11724087_x_at) / RFU OASL (11726364_x_at) / Fold change /veh OASL (11726364_x_at) / RFU SOX15 (11748057_x_at) / Fold change /veh SOX15 (11748057_x_at) / RFU CD79A (11719716_a_at) / Fold change /veh CD79A (11719716_a_at) / RFU HIST1H1D (11736915_at) / Fold change /veh HIST1H1D (11736915_at) / RFU CASKIN2 (11723855_a_at) / Fold change /veh CASKIN2 (11723855_a_at) / RFU LOC730098 (11760151_x_at) / Fold change /veh LOC730098 (11760151_x_at) / RFU OR4N2 (11742367_at) / Fold change /veh OR4N2 (11742367_at) / RFU PRRT2 (11749266_a_at) / Fold change /veh PRRT2 (11749266_a_at) / RFU SNX32 (11753110_a_at) / Fold change /veh SNX32 (11753110_a_at) / RFU CDHR5 (11726645_a_at) / Fold change /veh CDHR5 (11726645_a_at) / RFU RCAN1 (11760418_a_at) / Fold change /veh RCAN1 (11760418_a_at) / RFU FAM167A (11723789_a_at) / Fold change /veh FAM167A (11723789_a_at) / RFU FAM26E (11764081_at) / Fold change /veh FAM26E (11764081_at) / RFU ISYNA1 (11749810_s_at) / Fold change /veh ISYNA1 (11749810_s_at) / RFU ACY1 (11761880_at) / Fold change /veh ACY1 (11761880_at) / RFU 11764098_at / Fold change /veh 11764098_at / RFU SAMD14 (11745864_x_at) / Fold change /veh SAMD14 (11745864_x_at) / RFU NPB (11741838_a_at) / Fold change /veh NPB (11741838_a_at) / RFU TMPRSS6 (11731388_a_at) / Fold change /veh TMPRSS6 (11731388_a_at) / RFU KRTAP10-2 (11738614_at) / Fold change /veh KRTAP10-2 (11738614_at) / RFU ARHGAP8 /// PRR5-ARHGAP8 (11727945_x_at) / Fold change /veh ARHGAP8 /// PRR5-ARHGAP8 (11727945_x_at) / RFU KRTAP5-7 /// NADSYN1 (11734609_at) / Fold change /veh KRTAP5-7 /// NADSYN1 (11734609_at) / RFU RASL12 (11751679_a_at) / Fold change /veh RASL12 (11751679_a_at) / RFU CDKN2B (11736163_a_at) / Fold change /veh CDKN2B (11736163_a_at) / RFU PRF1 (11729649_at) / Fold change /veh PRF1 (11729649_at) / RFU, ZNF638 /// ZNF638-IT1 / Fold change vs veh, ZNF638 /// ZNF638-IT1 / RFU, PANK3 / Fold change vs veh, PANK3 / RFU, SH3YL1 / Fold change vs veh, SH3YL1 / RFU, ZEB2 / Fold change vs veh, ZEB2 / RFU, NRIP1 / Fold change vs veh, NRIP1 / RFU, PTTG1IP / Fold change vs veh, PTTG1IP / RFU, CAPN2 / Fold change vs veh, CAPN2 / RFU, MED14 / Fold change vs veh, MED14 / RFU, SNORA58 / Fold change vs veh, SNORA58 / RFU, C1orf63 / Fold change vs veh, C1orf63 / RFU, LRRFIP1 / Fold change vs veh, LRRFIP1 / RFU, NDUFAF7 / Fold change vs veh, NDUFAF7 / RFU, SLC12A2 / Fold change vs veh, SLC12A2 / RFU, IBTK / Fold change vs veh, IBTK / RFU, ESF1 / Fold change vs veh, ESF1 / Fold change vs veh, TMEM50B / RFU, TAOK1 / Fold change vs veh, TAOK1 / RFU, ACBD3 / Fold change vs veh, ACBD3 / RFU, TMA16 / Fold change vs veh, TMA16 / RFU, RWDD3 / Fold change vs veh, RWDD3 / RFU, BCAT1 / Fold change vs veh, BCAT1 / RFU, EDEM3 / Fold change vs veh, EDEM3 / RFU, TMEM33 / Fold change vs veh, TMEM33 / RFU, WDR75 / Fold change vs veh, WDR75 / RFU, AHCTF1 / Fold change vs veh, AHCTF1 / RFU, TFRC / Fold change vs veh, TFRC / RFU, ZDHHC17 / Fold change vs veh, ZDHHC17 / RFU, NOM1 / Fold change vs veh, NOM1 / RFU, ARL8B / Fold change vs veh, ARL8B / RFU, ZBTB11 / Fold change vs veh, ZBTB11 / RFU, TAMM41 / Fold change vs veh, TAMM41 / RFU, KIAA1704 /// LOC100996395 / Fold change vs veh, KIAA1704 /// LOC100996395 / RFU, ING1 / Fold change vs veh, ING1 / RFU, TRMT61B / Fold change vs veh, TRMT61B / RFU, FUBP3 / Fold change vs veh, FUBP3 / RFU, TP53 / Fold change vs veh, TP53 / RFU, TNKS2 / Fold change vs veh, TNKS2 / RFU, ZFP14 / Fold change vs veh, ZFP14 / RFU, ACTR2 / Fold change vs veh, ACTR2 / RFU, PPP3R1 / Fold change vs veh, PPP3R1 / RFU, PIK3R1 / Fold change vs veh, PIK3R1 / RFU, HNRNPA1 / Fold change vs veh, HNRNPA1 / RFU, RNF170 / Fold change vs veh, RNF170 / RFU, ZNF28 / Fold change vs veh, ZNF28 / RFU, RNGTT / Fold change vs veh, RNGTT / RFU, OGT / Fold change vs veh, OGT / RFU, BRD1 / Fold change vs veh, BRD1 / RFU, MARS / Fold change vs veh, MARS / RFU, ZNF655 / Fold change vs veh, ZNF655 / RFU, FAHD1 / Fold change vs veh, FAHD1 / RFU, BDP1 / Fold change vs veh, BDP1 / RFU, LRRCC1 / Fold change vs veh, LRRCC1 / RFU, ARID1A / Fold change vs veh, ARID1A / RFU, ZNF146 / Fold change vs veh, ZNF146 / RFU, ZNF330 / Fold change vs veh, ZNF330 / RFU, GPN3 / Fold change vs veh, GPN3 / RFU, C9orf123 / Fold change vs veh, C9orf123 / RFU, N4BP2L2 / Fold change vs veh, N4BP2L2 / RFU, ARFIP1 / Fold change vs veh, ARFIP1 / RFU, FAM179B / Fold change vs veh, FAM179B / RFU, BCL10 / Fold change vs veh, BCL10 / RFU, UHRF1BP1L / Fold change vs veh, UHRF1BP1L / RFU, BET1 / Fold change vs veh, BET1 / RFU, CNOT2 / Fold change vs veh, CNOT2 / RFU, ZNF268 / Fold change vs veh, ZNF268 / Fold change vs veh, ZNF507 / RFU, DGCR2 / Fold change vs veh, DGCR2 / RFU, WDSUB1 / Fold change vs veh, WDSUB1 / Fold change vs veh, HSP90B1 /// MIR3652 / RFU, ADSS / Fold change vs veh, ADSS / RFU, GK / Fold change vs veh, GK / RFU, ZNF148 / Fold change vs veh, ZNF148 / RFU, TAF9 / Fold change vs veh, TAF9 / RFU, SLC1A5 / Fold change vs veh, SLC1A5 / RFU, SLMO2 / Fold change vs veh, SLMO2 / RFU, ABCC4 / Fold change vs veh, ABCC4 / RFU, LOC101060439 /// RAP1B / Fold change vs veh, LOC101060439 /// RAP1B / RFU, RFX7 / Fold change vs veh, RFX7 / RFU, GTPBP10 / Fold change vs veh, GTPBP10 / RFU, CNEP1R1 / Fold change vs veh, CNEP1R1 / RFU, BIVM-ERCC5 /// ERCC5 / Fold change vs veh, BIVM-ERCC5 /// ERCC5 / RFU, ILF3 / Fold change vs veh, ILF3 / RFU 11762660_at / Fold change /veh 11762660_at / RFU VCAN (11757783_s_at) / Fold change /veh VCAN (11757783_s_at) / RFU DDX43 (11728927_at) / Fold change /veh DDX43 (11728927_at) / RFU KRT8 (11758188_x_at) / Fold change /veh KRT8 (11758188_x_at) / RFU NKD1 (11759106_at) / Fold change /veh NKD1 (11759106_at) / RFU SRD5A1 (11742802_a_at) / Fold change /veh SRD5A1 (11742802_a_at) / RFU TPSAB1 /// TPSB2 (11721975_s_at) / Fold change /veh TPSAB1 /// TPSB2 (11721975_s_at) / RFU GSTM3 (11746129_a_at) / Fold change /veh GSTM3 (11746129_a_at) / RFU IL23R (11737362_x_at) / Fold change /veh IL23R (11737362_x_at) / RFU TMEM51 (11727254_a_at) / Fold change /veh TMEM51 (11727254_a_at) / RFU PIWIL2 (11732686_x_at) / Fold change /veh PIWIL2 (11732686_x_at) / RFU ORM1 (11744905_x_at) / Fold change /veh ORM1 (11744905_x_at) / RFU CCDC152 (11743942_at) / Fold change /veh CCDC152 (11743942_at) / RFU ECM1 (11717891_a_at) / Fold change /veh ECM1 (11717891_a_at) / RFU IL23R (11748794_a_at) / Fold change /veh IL23R (11748794_a_at) / RFU TNFAIP8L3 (11732012_x_at) / Fold change /veh TNFAIP8L3 (11732012_x_at) / RFU MBOAT4 (11741988_at) / Fold change /veh MBOAT4 (11741988_at) / RFU 11764193_at / Fold change /veh 11764193_at / RFU TMEM53 (11763286_at) / Fold change /veh TMEM53 (11763286_at) / RFU MAGEB2 (11727129_at) / Fold change /veh MAGEB2 (11727129_at) / RFU TMEM200A (11744735_a_at) / Fold change /veh TMEM200A (11744735_a_at) / RFU CCDC152 (11751479_a_at) / Fold change /veh CCDC152 (11751479_a_at) / RFU FAM211A (11726209_a_at) / Fold change /veh FAM211A (11726209_a_at) / RFU RGS16 (11746705_a_at) / Fold change /veh RGS16 (11746705_a_at) / RFU VCAN (11755009_s_at) / Fold change /veh VCAN (11755009_s_at) / RFU RHOB (11743442_s_at) / Fold change /veh RHOB (11743442_s_at) / RFU RGS16 (11720943_a_at) / Fold change /veh RGS16 (11720943_a_at) / RFU RGS16 (11720944_at) / Fold change /veh RGS16 (11720944_at) / RFU, VPS4B / Fold change vs veh, VPS4B / RFU, CREB1 / Fold change vs veh, CREB1 / RFU, DNAJC13 / Fold change vs veh, DNAJC13 / RFU, GNAQ / Fold change vs veh, GNAQ / RFU, CDK5R1 / Fold change vs veh, CDK5R1 / RFU, ZRANB3 / Fold change vs veh, ZRANB3 / RFU, CUL4A / Fold change vs veh, CUL4A / RFU, CCNY / Fold change vs veh, CCNY / RFU, UFL1 / Fold change vs veh, UFL1 / RFU, COG3 / Fold change vs veh, COG3 / RFU, DIAPH2 / Fold change vs veh, DIAPH2 / RFU, SKA2 / Fold change vs veh, SKA2 / RFU, AFF3 / Fold change vs veh, AFF3 / RFU, LMF1 / Fold change vs veh, LMF1 / RFU, IPO11 / Fold change vs veh, IPO11 / RFU, DFFB / Fold change vs veh, DFFB / RFU, FOXP1 / Fold change vs veh, FOXP1 / RFU, CARD8 / Fold change vs veh, CARD8 / RFU, STRN3 / Fold change vs veh, STRN3 / RFU, ADK / Fold change vs veh, ADK / RFU, RASSF2 / Fold change vs veh, RASSF2 / RFU, WIPF1 / Fold change vs veh, WIPF1 / RFU, LARP1B / Fold change vs veh, LARP1B / RFU, RASA1 / Fold change vs veh, RASA1 / RFU, RB1 / Fold change vs veh, RB1 / RFU, PPFIA1 / Fold change vs veh, PPFIA1 / RFU, MAT2A / Fold change vs veh, MAT2A / RFU, CCT5 / Fold change vs veh, CCT5 / RFU, WDR92 / Fold change vs veh, WDR92 / RFU, CUX1 / Fold change vs veh, CUX1 / RFU, TTC7A / Fold change vs veh, TTC7A / RFU, TMEM135 / Fold change vs veh, TMEM135 / RFU, DEPTOR / Fold change vs veh, DEPTOR / RFU, CPM / Fold change vs veh, CPM / RFU, DNAJB6 / Fold change vs veh, DNAJB6 / RFU, CACNA2D3 / Fold change vs veh, CACNA2D3 / RFU, DTX4 / Fold change vs veh, DTX4 / RFU, TFCP2 / Fold change vs veh, TFCP2 / RFU, GMCL1 /// GMCL1P1 / Fold change vs veh, GMCL1 /// GMCL1P1 / RFU, AEBP2 / Fold change vs veh, AEBP2 / RFU, SNHG1 /// SNORD22 /// SNORD25 /// SNORD26 /// SNORD27 /// SNORD28 /// SNORD29 /// SNORD31 / Fold change vs veh, SNHG1 /// SNORD22 /// SNORD25 /// SNORD26 /// SNORD27 /// SNORD28 /// SNORD29 /// SNORD31 / Fold change (Aza/veh), C12orf56 (ProbeSet 11735607_a_at) / Fold change (ACY-1035/veh), C12orf56 (ProbeSet 11735607_a_at) / Fold change (Aza/veh), FGFR1OP (ProbeSet 11751329_s_at) / Fold change (ACY-1035/veh), FGFR1OP (ProbeSet 11751329_s_at) / Fold change (Aza/veh), VPS36 (ProbeSet 11739960_a_at) / Fold change (ACY-1035/veh), VPS36 (ProbeSet 11739960_a_at) / RFU SYPL1 (11715823_x_at) / Fold change /veh SYPL1 (11715823_x_at) / RFU IGFBP7 (11715501_s_at) / Fold change /veh IGFBP7 (11715501_s_at) / RFU REEP3 (11722064_at) / Fold change /veh REEP3 (11722064_at) / RFU IGLL1 (11728026_x_at) / Fold change /veh IGLL1 (11728026_x_at): dose or concentration left out as unconfirmed
Conditions: ProbeSet 11728443_a_at; LIST B

Q: `Nc1ncn([C@@H]2O[C@H](CO)[C@@H](O)[C@H]2O)c(=O)n1` [azacitidine] was tested. Which “Fold change vs veh, TAOK1” value did it give?
A: Its value is 0.96.

— article PMC5218480 (PLoS ONE, 2017)
